Nine compounds from ChEMBL document CHEMBL5465560, “Selectivity Literature for EUbOPEN Chemogenomic Library” (2024) can be followed below.

Test [1] addresses Serine/threonine-protein kinase 38-like (Homo sapiens) (UniProt Q9Y2H1). In words: Selectivity interaction (Kinase panel (DSF assay)) EUB0001558a STK38L. (In DSF a fluorescence change marks the thermal transition of the protein.)
Test [2] addresses Serine/threonine-protein kinase 16 (Homo sapiens, UniProt O75716). In words: Selectivity interaction (KinomeScan (DiscoverX)) EUB0000655a STK16. To be noted: at 10 µM.
In test [3] the target is 5'-AMP-activated protein kinase catalytic subunit alpha-2 (Homo sapiens) (UniProt P54646). As to the kind of experiment: Selectivity interaction (ActivX KiNativ screen (kinase selectivity in THP-1 cell lysates)) EUB0000639a PRKAA2. To be noted: lysate, at 0.01 µM. The class given is subcellular.
Sequence of 5'-AMP-activated protein kinase catalytic subunit alpha-2 (Homo sapiens) (P54646 whole entry, looked up): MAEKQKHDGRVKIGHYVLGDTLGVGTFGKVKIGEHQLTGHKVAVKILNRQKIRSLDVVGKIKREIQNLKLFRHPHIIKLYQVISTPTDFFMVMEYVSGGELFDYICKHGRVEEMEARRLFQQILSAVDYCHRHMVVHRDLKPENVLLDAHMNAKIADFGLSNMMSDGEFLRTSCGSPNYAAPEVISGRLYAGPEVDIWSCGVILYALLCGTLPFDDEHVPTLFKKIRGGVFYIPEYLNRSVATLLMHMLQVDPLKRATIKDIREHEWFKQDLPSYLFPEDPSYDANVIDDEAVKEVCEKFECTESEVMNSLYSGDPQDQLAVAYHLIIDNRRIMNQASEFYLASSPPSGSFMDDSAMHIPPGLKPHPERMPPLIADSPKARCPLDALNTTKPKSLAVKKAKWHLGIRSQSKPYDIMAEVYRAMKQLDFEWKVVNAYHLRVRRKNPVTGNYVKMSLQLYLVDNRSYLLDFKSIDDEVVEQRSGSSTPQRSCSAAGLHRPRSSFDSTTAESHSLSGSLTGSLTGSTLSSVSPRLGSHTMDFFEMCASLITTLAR
The target of test [4] is Serine/threonine-protein kinase WNK1 (Homo sapiens) (UniProt Q9H4A3). In words: Selectivity interaction (ActivX KiNativ screen (kinase selectivity in THP-1 cell lysates)) EUB0000639a WNK1. The class given is subcellular. To be noted: lysate, at 0.01 µM.
Sequence of Serine/threonine-protein kinase WNK1 (Homo sapiens) (Q9H4A3 whole entry, looked up, canonical isoform): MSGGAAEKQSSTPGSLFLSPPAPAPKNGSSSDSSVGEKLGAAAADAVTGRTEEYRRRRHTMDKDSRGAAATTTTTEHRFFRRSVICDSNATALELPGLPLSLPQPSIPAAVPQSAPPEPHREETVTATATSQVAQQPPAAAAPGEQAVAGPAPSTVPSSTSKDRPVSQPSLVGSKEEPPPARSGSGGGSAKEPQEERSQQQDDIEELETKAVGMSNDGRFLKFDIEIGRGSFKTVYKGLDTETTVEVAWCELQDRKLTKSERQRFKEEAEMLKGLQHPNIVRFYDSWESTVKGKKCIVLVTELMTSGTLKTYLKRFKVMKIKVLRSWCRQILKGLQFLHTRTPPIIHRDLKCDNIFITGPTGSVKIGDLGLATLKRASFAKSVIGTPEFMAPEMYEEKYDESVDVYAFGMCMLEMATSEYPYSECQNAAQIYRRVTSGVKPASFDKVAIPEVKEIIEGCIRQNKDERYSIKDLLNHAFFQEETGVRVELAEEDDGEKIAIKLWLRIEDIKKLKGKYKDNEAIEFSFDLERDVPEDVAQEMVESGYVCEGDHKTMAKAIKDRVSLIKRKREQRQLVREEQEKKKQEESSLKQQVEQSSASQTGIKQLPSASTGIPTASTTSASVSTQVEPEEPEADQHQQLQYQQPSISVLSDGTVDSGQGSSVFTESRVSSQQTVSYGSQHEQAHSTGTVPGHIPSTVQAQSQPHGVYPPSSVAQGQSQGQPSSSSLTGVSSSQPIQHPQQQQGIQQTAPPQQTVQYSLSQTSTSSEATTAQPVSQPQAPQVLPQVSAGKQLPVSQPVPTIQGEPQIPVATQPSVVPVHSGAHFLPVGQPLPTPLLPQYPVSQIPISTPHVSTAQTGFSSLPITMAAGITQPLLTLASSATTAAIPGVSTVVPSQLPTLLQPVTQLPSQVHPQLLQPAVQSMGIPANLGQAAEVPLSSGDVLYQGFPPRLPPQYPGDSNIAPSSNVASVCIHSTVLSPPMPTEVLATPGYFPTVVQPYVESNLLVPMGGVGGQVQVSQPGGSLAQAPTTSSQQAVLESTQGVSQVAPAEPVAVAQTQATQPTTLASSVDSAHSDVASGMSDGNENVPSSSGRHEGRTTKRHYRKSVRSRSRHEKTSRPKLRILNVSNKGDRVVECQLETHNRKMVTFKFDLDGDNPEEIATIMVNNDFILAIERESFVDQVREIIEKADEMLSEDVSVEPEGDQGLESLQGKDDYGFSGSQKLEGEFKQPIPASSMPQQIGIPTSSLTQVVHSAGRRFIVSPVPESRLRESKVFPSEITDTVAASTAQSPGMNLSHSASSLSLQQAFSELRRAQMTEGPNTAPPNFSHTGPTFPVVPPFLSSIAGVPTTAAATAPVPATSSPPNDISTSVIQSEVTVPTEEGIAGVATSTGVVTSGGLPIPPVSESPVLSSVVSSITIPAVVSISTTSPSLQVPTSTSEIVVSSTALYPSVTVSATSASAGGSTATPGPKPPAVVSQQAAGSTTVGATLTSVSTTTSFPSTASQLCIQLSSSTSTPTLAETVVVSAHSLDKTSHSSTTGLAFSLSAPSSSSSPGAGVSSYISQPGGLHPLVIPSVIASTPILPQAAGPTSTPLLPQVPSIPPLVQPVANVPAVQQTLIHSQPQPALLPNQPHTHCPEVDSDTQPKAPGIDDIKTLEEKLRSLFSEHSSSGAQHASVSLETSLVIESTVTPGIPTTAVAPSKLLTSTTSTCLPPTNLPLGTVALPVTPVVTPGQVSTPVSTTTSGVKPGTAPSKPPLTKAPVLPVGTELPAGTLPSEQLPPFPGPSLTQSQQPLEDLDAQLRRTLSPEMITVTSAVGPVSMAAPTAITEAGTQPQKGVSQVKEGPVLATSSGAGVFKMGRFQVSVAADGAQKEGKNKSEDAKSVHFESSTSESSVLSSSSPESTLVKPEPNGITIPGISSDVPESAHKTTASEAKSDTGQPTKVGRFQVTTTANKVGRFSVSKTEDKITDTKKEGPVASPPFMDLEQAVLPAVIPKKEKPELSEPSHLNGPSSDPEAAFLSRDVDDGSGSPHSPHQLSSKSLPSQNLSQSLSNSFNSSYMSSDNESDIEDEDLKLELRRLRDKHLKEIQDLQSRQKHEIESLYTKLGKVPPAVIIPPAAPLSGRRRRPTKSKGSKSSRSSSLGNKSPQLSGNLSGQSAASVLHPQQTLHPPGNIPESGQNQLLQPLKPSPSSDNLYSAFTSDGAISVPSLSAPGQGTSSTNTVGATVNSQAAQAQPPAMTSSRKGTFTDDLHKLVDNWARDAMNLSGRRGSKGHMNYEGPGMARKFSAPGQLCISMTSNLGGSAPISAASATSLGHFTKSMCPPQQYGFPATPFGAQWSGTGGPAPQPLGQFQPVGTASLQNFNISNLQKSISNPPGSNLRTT
Test [5] has as its target Casein kinase I isoform alpha (Homo sapiens, UniProt P48729). In words: Selectivity interaction (ActivX KiNativ screen (kinase selectivity in THP-1 cell lysates)) EUB0000639a CSNK1A1. The class given is subcellular. The conditions noted are these: lysate, at 0.04 µM.
The target of test [6] is T1, Dual specificity mitogen-activated protein kinase kinase 6 (Homo sapiens) (UniProt P52564).
T1 sequence (whole entry): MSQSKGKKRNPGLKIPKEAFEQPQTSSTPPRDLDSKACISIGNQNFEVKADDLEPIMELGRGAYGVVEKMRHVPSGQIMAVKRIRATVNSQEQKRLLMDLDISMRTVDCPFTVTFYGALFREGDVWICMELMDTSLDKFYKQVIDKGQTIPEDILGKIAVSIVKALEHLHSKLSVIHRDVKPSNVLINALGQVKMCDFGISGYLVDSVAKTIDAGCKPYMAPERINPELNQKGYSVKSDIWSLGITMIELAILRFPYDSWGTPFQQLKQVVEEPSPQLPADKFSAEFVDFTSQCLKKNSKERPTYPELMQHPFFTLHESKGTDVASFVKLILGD
As to the kind of experiment: Selectivity interaction (Millipore kinase profiler) EUB0000124b MAP2K6. To be noted: at 10 µM.

For test [7], the target named is Homeodomain-interacting protein kinase 4 (Homo sapiens, UniProt Q8NE63). As to the kind of experiment: Selectivity interaction (Enzymatic assay (Eurofins)) EUB0001049a HIPK4.
Sequence of Homeodomain-interacting protein kinase 4 (Q8NE63 whole entry): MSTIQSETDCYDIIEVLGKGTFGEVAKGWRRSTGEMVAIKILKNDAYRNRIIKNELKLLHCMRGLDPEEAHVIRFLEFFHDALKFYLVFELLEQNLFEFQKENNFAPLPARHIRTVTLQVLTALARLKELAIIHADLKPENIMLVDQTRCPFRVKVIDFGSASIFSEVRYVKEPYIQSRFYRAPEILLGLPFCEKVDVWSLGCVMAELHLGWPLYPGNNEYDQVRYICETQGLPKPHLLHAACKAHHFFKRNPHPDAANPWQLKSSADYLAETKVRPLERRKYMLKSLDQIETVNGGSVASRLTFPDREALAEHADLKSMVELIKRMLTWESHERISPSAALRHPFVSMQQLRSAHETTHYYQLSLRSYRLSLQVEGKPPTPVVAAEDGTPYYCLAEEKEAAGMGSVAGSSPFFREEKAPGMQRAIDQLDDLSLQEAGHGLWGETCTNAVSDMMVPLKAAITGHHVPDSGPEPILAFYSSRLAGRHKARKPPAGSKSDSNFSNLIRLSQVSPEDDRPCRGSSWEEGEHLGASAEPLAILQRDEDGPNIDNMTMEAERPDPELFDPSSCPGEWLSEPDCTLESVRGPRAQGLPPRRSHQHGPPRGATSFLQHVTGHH
Test [8] has as its target T2, Serine/threonine-protein kinase TAO2 (Homo sapiens) (UniProt Q9UL54).
T2 sequence (whole entry): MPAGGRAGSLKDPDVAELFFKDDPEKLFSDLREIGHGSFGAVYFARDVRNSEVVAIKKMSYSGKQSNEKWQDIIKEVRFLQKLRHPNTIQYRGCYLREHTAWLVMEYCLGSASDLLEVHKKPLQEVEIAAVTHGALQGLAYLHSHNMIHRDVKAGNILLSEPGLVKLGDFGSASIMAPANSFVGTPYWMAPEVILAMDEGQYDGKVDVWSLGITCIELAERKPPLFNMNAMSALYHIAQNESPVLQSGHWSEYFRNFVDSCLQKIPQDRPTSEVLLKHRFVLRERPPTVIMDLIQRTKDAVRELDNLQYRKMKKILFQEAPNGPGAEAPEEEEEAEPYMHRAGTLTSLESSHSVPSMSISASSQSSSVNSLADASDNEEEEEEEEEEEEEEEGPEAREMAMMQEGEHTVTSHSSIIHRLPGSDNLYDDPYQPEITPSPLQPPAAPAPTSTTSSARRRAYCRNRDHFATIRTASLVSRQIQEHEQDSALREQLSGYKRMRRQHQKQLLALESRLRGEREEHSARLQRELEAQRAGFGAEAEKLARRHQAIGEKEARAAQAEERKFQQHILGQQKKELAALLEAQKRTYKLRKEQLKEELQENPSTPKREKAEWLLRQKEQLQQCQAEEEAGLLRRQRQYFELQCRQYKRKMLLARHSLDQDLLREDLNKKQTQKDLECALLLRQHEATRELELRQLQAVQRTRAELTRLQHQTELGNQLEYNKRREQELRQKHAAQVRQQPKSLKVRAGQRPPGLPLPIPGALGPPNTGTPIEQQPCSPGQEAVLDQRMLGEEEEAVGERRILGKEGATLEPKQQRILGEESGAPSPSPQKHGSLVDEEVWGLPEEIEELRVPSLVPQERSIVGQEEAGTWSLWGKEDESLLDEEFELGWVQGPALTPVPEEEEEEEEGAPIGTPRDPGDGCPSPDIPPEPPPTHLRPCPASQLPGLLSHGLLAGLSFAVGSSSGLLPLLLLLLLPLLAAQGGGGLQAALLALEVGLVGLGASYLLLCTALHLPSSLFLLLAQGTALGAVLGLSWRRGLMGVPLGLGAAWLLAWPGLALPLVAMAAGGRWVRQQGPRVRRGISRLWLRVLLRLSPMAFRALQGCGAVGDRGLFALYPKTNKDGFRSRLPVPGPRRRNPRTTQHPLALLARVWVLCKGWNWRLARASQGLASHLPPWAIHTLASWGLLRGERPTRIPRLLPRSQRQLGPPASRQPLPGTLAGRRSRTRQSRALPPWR
As to the kind of experiment: Selectivity interaction (ProQinase) EUB0000171b TAOK2.

Test [9] addresses Acetylcholine receptor subunit alpha (Homo sapiens, UniProt P02708). As to the kind of experiment: Selectivity interaction (Panel of kinases, GPCRs, ion channels and transporters (enzymatic assay)) EUB0000223bCl CHRNA1.
Test [10] has as its target Ephrin type-A receptor 5 (Homo sapiens) (UniProt P54756). In words: Selectivity interaction (KinomeScan (DiscoverX)) EUB0000092b EPHA5. To be noted: at 10 µM.
Another test deals with Aurora kinase B (Homo sapiens, UniProt Q96GD4). In words: Selectivity interaction (KinomeScan (DiscoverX)) EUB0000092b AURKB. To be noted: at 10 µM.
Test [11] has as its target T3, Mitogen-activated protein kinase 12 (Homo sapiens) (UniProt P53778).
T3 sequence (whole entry): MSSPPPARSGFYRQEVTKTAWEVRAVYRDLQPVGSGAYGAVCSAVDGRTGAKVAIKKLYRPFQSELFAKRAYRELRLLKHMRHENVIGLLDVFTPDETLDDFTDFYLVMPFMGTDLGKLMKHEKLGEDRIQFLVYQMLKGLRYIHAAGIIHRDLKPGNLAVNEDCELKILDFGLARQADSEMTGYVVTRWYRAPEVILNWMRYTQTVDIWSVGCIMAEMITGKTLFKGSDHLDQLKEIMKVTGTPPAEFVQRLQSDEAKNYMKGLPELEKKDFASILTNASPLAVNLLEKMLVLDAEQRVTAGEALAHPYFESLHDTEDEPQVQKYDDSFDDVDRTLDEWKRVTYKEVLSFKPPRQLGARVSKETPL
In words: Selectivity interaction (Upstate Kinase Profiler service (Millipore)) EUB0000056c MAPK12. To be noted: at 1 µM.

Where only a bound is given, the exact number is not on record here.

Sequence of Serine/threonine-protein kinase 38-like (Homo sapiens) (Q9Y2H1 2-464 limits assumed): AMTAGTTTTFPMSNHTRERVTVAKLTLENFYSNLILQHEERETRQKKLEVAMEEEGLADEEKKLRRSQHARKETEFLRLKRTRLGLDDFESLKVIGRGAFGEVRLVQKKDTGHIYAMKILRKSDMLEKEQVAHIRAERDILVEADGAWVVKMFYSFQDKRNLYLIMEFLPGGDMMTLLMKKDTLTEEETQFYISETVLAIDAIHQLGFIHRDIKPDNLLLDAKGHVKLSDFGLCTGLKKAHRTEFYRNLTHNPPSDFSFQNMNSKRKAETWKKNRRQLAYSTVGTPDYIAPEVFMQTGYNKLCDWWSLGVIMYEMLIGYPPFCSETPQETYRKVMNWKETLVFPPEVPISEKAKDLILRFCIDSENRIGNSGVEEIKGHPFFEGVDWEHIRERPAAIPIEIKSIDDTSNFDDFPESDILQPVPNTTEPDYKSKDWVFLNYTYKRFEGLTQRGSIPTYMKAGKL
Sequence of Ephrin type-A receptor 5 (Homo sapiens) (P54756 whole entry): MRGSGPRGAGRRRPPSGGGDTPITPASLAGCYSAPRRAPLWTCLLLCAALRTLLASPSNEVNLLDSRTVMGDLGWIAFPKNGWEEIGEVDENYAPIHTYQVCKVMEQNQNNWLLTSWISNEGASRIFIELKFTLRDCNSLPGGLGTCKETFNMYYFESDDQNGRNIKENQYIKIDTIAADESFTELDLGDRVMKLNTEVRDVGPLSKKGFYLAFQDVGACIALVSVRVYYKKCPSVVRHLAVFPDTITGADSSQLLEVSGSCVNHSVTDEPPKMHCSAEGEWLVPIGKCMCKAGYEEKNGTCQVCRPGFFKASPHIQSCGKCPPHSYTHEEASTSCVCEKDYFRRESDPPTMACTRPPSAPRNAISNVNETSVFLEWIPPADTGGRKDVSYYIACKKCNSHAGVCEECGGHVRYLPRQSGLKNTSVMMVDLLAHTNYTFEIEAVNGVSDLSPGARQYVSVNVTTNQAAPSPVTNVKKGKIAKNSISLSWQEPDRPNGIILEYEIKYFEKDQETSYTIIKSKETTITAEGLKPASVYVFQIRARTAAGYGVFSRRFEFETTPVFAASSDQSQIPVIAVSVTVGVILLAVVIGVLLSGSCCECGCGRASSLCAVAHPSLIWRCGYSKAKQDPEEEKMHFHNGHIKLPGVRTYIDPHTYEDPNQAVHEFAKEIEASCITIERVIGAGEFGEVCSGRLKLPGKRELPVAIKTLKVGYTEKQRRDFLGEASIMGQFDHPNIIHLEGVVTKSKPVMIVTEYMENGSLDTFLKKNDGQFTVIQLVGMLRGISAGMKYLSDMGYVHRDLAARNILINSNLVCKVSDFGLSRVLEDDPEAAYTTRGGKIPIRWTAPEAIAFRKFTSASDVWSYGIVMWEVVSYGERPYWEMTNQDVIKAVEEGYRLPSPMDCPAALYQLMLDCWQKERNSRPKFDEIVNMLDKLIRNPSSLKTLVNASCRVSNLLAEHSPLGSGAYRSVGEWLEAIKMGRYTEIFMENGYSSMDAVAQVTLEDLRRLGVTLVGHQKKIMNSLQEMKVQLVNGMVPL

The compound `CC(C)(O)[C@H](F)CN1Cc2cc(NC(=O)c3cnn4cccnc34)c(N3CCOCC3)cc2C1=O` yielded a dTM in test [1] of -0.2 K.

In test [2], `CN(C)CCOc1ccc(-c2nc(-c3ccncc3)c(-c3ccc4c(c3)CC/C4=N\O)[nH]2)cc1` yielded a % of control of 94%.

On to `CC[C@@H]1[C@H](F)C(=O)N[C@@H]1COc1nccc2cc(C(N)=O)c(OC)cc12` [ZIMLOVISERTIB], for which the % of inhibition is 14.5% in [3], 3.3% in test [4] and -2.5% in [5].

`CC(=O)Nc1cccc(-n2c(=O)n(C3CC3)c(=O)c3c(Nc4ccc(I)cc4F)n(C)c(=O)c(C)c32)c1` showed a % of control in test [6] of 70%.

Take `COc1cc(Nc2nc(C)cc(-c3cnn4nc(OC)ccc34)n2)cc(C(F)(F)F)c1`: the IC50 (usually the concentration that inhibits the measured activity by half) in test [7] was above 10 µM.

Take `C=CC(=O)Nc1cccc(C(=O)Nc2ccc(Nc3cc(-c4[nH]c(SC)nc4C)ccn3)cc2)c1`: the % of control stood at 38% in [8] (at 1 µM) and 16% in test [8] (at 5 µM).

Regarding `COc1cc(C(=O)N2CC[C@@H](O)[C@@H](N)C2)cc2nc(-c3cc4ccccc4n3CC3CC3)n(C)c12`, in test [9], the pXC50 was below 4.3 M.

`CCC(=O)N1CCN(c2ccc(-n3c(=O)ccc4cnc5ccc(-c6cnc7ccccc7c6)cc5c43)cc2C(F)(F)F)CC1`: the % of control in test [10] worked out at 100%; on Aurora kinase B it was 82%.

`Cc1ccc(-c2ccc3c(ccc4sc5c(c43)NC[C@@H](C)NC5=O)n2)cn1`: the % of inhibition in test [11] is -15%.
